In patent US11492361B2, “Compounds useful in HIV therapy” (GlaxoSmithKline Intellectual Property Development Limited, priority 2018, dated 2022):
Read-outs that look alike come from different tables or passages of the source.

Tests used:
p100/p52 [1] = settings: background statement, primary cells; cited from earlier work
[2] = system: Jurkat HIV-luciferase clones; settings: background statement; cited from earlier work
[3] = system: cell-associated HIV RNA (HIV gag RNA) in CD4+ T cells; settings: background statement, primary cells / resting CD4+ T cells; cited from earlier work
p100/p52 [4] = test: p100/p52 Western blot (WB) assay; assay type: cell-based, human; settings: PBMC cells from healthy donors, 24 hrs, read-out: p100/p52 Western Blot (WB) EC50
Method: Cell cultures were set up to evaluate several SMACm compounds. Frozen PBMC cells from healthy donors were thawed and plated in 2 ml deepwell plates at 2×10^6 cells/ml. Serial dilutions of each compound was carried out as a 7 fold 1:6 dilution with the starting final dose of 1000 nM. Cells were then combined with compound and place at 37° for 24 hrs. The following day cells were pelleted and placed at −80 until lysis.
In preparation for cell lysis, the frozen cell pellets and an aliquot of NP40 Cell Lysis Buffer (Invitrogen, Part #FNN0021), as well as an aliquot of 10× Protease Inhibitor Cocktail (Sigma, Part #P-2714) are thawed on ice. Once thawed, the complete lysis buffer is prepared by adding 10% final volume PI cocktail to the NP40 buffer and then adding in sufficient volume of 0.1 M PMSF (Sigma, Part #93482) and 1 M DTT (Sigma, Part #43816) to create a final concentration of 1 mM each in the complete lysis buffer. Cell lysis is then carried out by resuspending each cell pellet in 30 μL per 10^6 cells then incubating on ice for 30 minutes with vigorous vortexing every 10 minutes. The lysed cells are then centrifuged at 13K RPM for 10 minutes at 4° C. in a refrigerated microcentrifuge. The supernatants (lysates) are then transferred into new microcentrifuge tubes and either stored at −80° or utilized immediately for protein concentration and Western blot analysis.
Protein concentration for each lysate is determined using a detergent compatible Bradford assay (Pierce, Part #23246) following the manufacturer's microplate instructions.
Capillary Western analysis were performed using the ProteinSimple Jess System. A total of 1 ug of cell lysate was prepared according to the provided protocol supplied by ProteinSimple. The primary antibody for p100/p52 (Cell, Signaling #3017) is diluted 1:10 for use in the Jess system. The 12-230 kDa Jess Seperation Module capillary cartridges Separation Module (SM-W004) is used in conjunction with the Anti-Rabbit Secondary NIR conjugate (043-819). The Separation module includes prefilled plates that the samples, primary and secondary antibodies, as well as protein normalization reagent and diluents are loaded onto to perform separation and detection. Once the assay has run, the data is then analyzed utilizing the Compass software provided by ProteinSimple.
Alternatively to capillary electrophoresis, traditional immunoblot assays were carried out, 10 μg of cell lysate was loaded per well into 4-20% Tris-Glycine SDS-PAGE gels. Protein from the SDS-PAGE gels were transferred to Turbo Midi PVDF Transfer Packs (BioRad) using the “Mixed MW” protocol for one Midi Format Gel (constant 2.5 A up to 25V, for 7 minutes) of the Trans-Blot Turbo Transfer System (Bio-Rad) with premade Trans-Blot per the manufacturer's instructions. After transfer, PVDF membranes were blocked in 5% bovine serum albumin (BSA) in 1×TBS (BioRad) with 0.1% Tween-20 for 1 hour at room temperature with gentle rocking. Primary antibodies were added and incubated overnight at 4° C. (anti-p100/p52, Cell Signaling Technology #3017, 1:1000; anti-Actin-HRP conjugate, Abcam #49900, 1:30,000). Following primary staining, the membrane washed three times with 1× Tris Buffered Saline (TBS)+0.1% TWEEN® 20 for 10 minutes each wash. After washing, the membrane was incubated in 5% BSA in 1×TBS+0.1% TWEEN® 20 with the appropriate secondary antibody for 2 hours at room temperature. Following secondary stain the membrane was washed twice for 10 minutes with 1×TBS+0.1% TWEEN® 20 followed by a 10-minute wash with 1×TBS. The membrane was then patted dry with filter paper and an image was captured of the undeveloped membrane on the ChemiDoc MP Imaging System using Image Lab software (BioRad). Sufficient ECL reagent (GE Healthcare) was used to cover the membrane and a series of images were taken starting with 0.001 second and doubling to tripling the exposure time until the luminescence from the developed membrane saturated the image. […]

Row | SMILES | p100-p52 conversion (p100/p52 [1]) | potency in cell line assays / Jurkat (HIV latency reversal) [2] | HIV caRNA induction [3] | EC50 (p100/p52 [4]) | EC50 (p100/p52 [4]; Homo sapiens)
1 | CN[C@H](C)C(=O)N[C@@H]1CCS[C@@H]2CC(C)(C)C(C(=O)N[C@@H]3CCCc4ccccc43)N2C1=O (stereo partly shown) [SBI-0637142] | did not exhibit activity | potent | did not exhibit activity | 100 to 1000 nM | –
2 | CN[C@H](C)C(=O)N[C@@H](C(=O)N1CCC[C@@H]1C(=O)N[C@@H]1c2ccccc2C[C@@H]1OCC#CC#CCO[C@@H]1Cc2ccccc2[C@H]1NC(=O)[C@H]1CCCN1C(=O)[C@H](NC(=O)[C@@H](C)NC)C1CCCCC1)C1CCCCC1 [AZD5582, reference compound] | – | – | increase in cell-associated HIV RNA expression | 63 nM | –
3 | CC[C@H](NC(=O)[C@H](C)NC)C(=O)N1C[C@@H](O)C[C@H]1Cc1c(-c2[nH]c3cc(F)ccc3c2C[C@@H]2C[C@H](O)CN2C(=O)[C@H](CC)NC(=O)[C@H](C)NC)[nH]c2cc(F)ccc12 [Birinapant, reference compound] | – | – | – | – | 1000 nM
